Experimental data published in patent US20240293392A1, “INHIBITOR COMPOUNDS” (NeoPhore Limited, priority 2021, published 2024).
pIC50: −log10 of the molar value. Where two headings read alike, the source gives them in different places.

Legend:
[1] = biological target: T1, recombinant N-terminal MLH1 (residues 15-340) (Homo sapiens, UniProt P40692); assay: Fluorescence Polarisation Assay for MLH1; type: binding; details: fluorescence polarisation probe displacement; 100 nM N-terminal MLH1, 5 nM probe compound
T1 construct: recombinant N-terminal MLH1 (residues 15-340)
T1 sequence (P40692 15-340): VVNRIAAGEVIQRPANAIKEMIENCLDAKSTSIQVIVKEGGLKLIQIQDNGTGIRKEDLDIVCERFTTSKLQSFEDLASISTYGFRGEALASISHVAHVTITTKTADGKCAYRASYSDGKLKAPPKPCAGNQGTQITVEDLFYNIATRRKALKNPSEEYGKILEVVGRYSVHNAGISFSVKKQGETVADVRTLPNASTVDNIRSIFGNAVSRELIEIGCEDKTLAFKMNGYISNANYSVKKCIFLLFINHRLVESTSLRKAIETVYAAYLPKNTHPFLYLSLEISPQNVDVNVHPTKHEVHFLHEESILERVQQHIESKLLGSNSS
Summary of the method: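 FP displacement assay: 100 nM MLH1 (residues 15-340) preincubated 30 min at room temperature with compound in 25 mM HEPES pH 7.5, 250 mM NaCl, 10 mM MgCl2, 0.01% Triton X-100, 5 mM DTT, then 5 nM rhodamine-labelled probe added and read immediately. Data normalised to no-inhibitor and no-enzyme controls.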

[2] = biological target: T2, recombinant N-terminal PMS2 (residues 1-365) (Homo sapiens, UniProt P54278); assay: Fluorescence Polarisation Assay for PMS2; type: binding; details: 10 nM N-terminal PMS2, 5 nM probe compound
T2 construct: recombinant N-terminal PMS2 (residues 1-365)
T2 sequence (P54278 1-365): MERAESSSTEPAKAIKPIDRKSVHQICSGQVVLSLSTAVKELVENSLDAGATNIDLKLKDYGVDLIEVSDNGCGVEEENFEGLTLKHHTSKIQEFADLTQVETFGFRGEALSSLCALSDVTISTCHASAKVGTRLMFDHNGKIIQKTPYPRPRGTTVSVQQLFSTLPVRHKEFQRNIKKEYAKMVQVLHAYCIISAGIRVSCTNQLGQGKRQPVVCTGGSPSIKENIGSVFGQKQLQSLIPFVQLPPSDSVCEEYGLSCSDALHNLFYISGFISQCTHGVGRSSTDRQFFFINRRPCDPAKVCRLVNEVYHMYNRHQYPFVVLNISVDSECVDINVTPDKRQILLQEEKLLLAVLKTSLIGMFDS
Summary of the method: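 Competition fluorescence polarisation with 10 nM N-terminal PMS2 and 5 nM fluorescent probe (final), read after 1 h at room temperature following 30 min compound pre-incubation. Data normalised to no-inhibitor and no-enzyme controls; single-point screening or serial dilutions for potency.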

[3] = fluorescence polarisation probe displacement, read-out: PMS2 IC50

`CN(C)CCOc1cc2c(c(N[C@@H]3CCOC3)c1)CN(C(=O)c1c(O)cc(O)cc1OCc1ccccc1)CC2` [Example 131, (R)-(2-(Benzyloxy)-4,6-dihydroxyphenyl)(6-(2-(dimethylamino)ethoxy)-8-((tetrahydrofuran-3-yl)amino)-3,4-dihydroisoquinolin-2(1H)-yl)methanone] showed a pIC50 [1] greater than 6.00 and a pIC50 [2, 3] of 5.00 to 6.00.
Molecule `Nc1cccc2c1CN(C(=O)c1c(O)cc(O)cc1OCc1ccccc1)C2` [Example 93, (4-Aminoisoindolin-2-yl)(2-(benzyloxy)-4,6-dihydroxyphenyl)methanone] has a pIC50 [1] greater than 6.00 and a pIC50 [2, 3] of 5.00 to 6.00.
For `O=C(c1c(O)cc(O)cc1OCc1ccccc1)N1Cc2cccc(NCc3cocn3)c2C1` [Example 20, (2-(Benzyloxy)-4,6-dihydroxyphenyl)(4-((oxazol-4-ylmethyl)amino)isoindolin-2-yl)methanone], the pIC50 [1] was greater than 6.00 and the pIC50 [2, 3] was 5.00 to 6.00.
Molecule `O=C(c1c(O)cc(O)cc1OCc1ccccc1)N1Cc2cccc(NC3CCCOC3)c2C1` (single isomer, unassigned) [Example 31, (2-(Benzyloxy)-4,6-dihydroxyphenyl)(4-((tetrahydro-2H-pyran-3-yl)amino)isoindolin-2-yl)methanone] has a pIC50 [1] of 5.00 to 6.00 and a pIC50 [2, 3] of less than 5.00.
Molecule `O=C(c1c(O)cc(O)cc1OCc1ccccn1)N1CCc2cccc(N[C@@H]3CCOC3)c2C1` [Example 56, (R)-(2,4-dihydroxy-6-(pyridin-2-ylmethoxy)phenyl)(8-((tetrahydrofuran-3-yl)amino)-3,4-dihydroisoquinolin-2(1H)-yl)methanone] has a pIC50 [1] greater than 6.00 and a pIC50 [2, 3] of less than 5.00.
`COCCOc1cc2c(c(N[C@@H]3CCOC3)c1)CN(C(=O)c1c(O)cc(O)cc1OCc1ccccn1)CC2` [Example 142, (R)-(2,4-Dihydroxy-6-(pyridin-2-ylmethoxy)phenyl)(6-(2-methoxyethoxy)-8-((tetrahydrofuran-3-yl)amino)-3,4-dihydroisoquinolin-2(1H)-yl)methanone] was tested, and the pIC50 [1] was greater than 6.00 and the pIC50 [2, 3] was less than 5.00.
`COCCOc1cc2c(c(N[C@@H]3CCOC3)c1)CN(C(=O)c1c(O)cc(O)cc1OCc1ccccc1)CC2` [Example 60, (R)-(2-(Benzyloxy)-4,6-dihydroxyphenyl)(6-(2-methoxyethoxy)-8-((tetrahydrofuran-3-yl)amino)-3,4-dihydroisoquinolin-2(1H)-yl)methanone] was tested, and the pIC50 [1] was greater than 6.00 and the pIC50 [2, 3] was less than 5.00.
With `O=C(c1c(O)cc(O)cc1OCC1CCCCC1)N1CCc2cccc(NC3CCOC3)c2C1` (centres unmarked) [Example 28, (2-(Cyclohexylmethoxy)-4,6-dihydroxyphenyl)(8-((tetrahydrofuran-3-yl)amino)-3,4-dihydroisoquinolin-2(1H)-yl)methanone] the pIC50 [1] was 5.00 to 6.00 and the pIC50 [2, 3] was 5.00 to 6.00.
`Cn1ncc(Nc2cccc3c2CN(C(=O)c2c(O)cc(O)cc2OCc2ccccc2)C3)n1` [Example 35, (2-(Benzyloxy)-4,6-dihydroxyphenyl)(4-((2-methyl-2H-1,2,3-triazol-4-yl)amino)isoindolin-2-yl)methanone] gave a pIC50 [1] greater than 6.00 and a pIC50 [2, 3] of 5.00 to 6.00.
With `Cn1cc(Nc2cccc3c2CN(C(=O)c2c(O)cc(O)cc2OCc2ccccc2)CC3)ccc1=O` [Example 135, 5-((2-(2-(Benzyloxy)-4,6-dihydroxybenzoyl)-1,2,3,4-tetrahydroisoquinolin-8-yl)amino)-1-methylpyridin-2(1H)-one] the pIC50 [1] was greater than 6.00 and the pIC50 [2, 3] was 5.00 to 6.00.
For `O=C(c1c(O)cc(O)cc1OCc1ccccc1)N1Cc2ccccc2C(O)C1` (single isomer, unassigned) [Example 50, (2-Benzyloxy-4,6-dihydroxy-phenyl)-(4-hydroxy-3,4-dihydro-1H-isoquinolin-2-yl)methanone], the pIC50 [1] was 5.00 to 6.00 and the pIC50 [2, 3] was less than 5.00.
For `CCOc1cc(O)cc(O)c1C(=O)N1Cc2cccc(NC3CCOC3)c2C1` (centres unmarked) [Example 17, (2-Ethoxy-4,6-dihydroxyphenyl)(4-((tetrahydrofuran-3-yl)amino)isoindolin-2-yl)methanone], the pIC50 [1] was greater than 6.00 and the pIC50 ([2]; PMS2 IC50, fluorescence polarisation probe displacement) was less than 5.00.
For `COCCCC(=O)N1CC[C@H](N(C)c2cccc3c2CN(C(=O)c2c(O)cc(O)cc2OCc2ccccc2)CC3)C1` [Example 150, (S)-1-(3-((2-(2-(Benzyloxy)-4,6-dihydroxybenzoyl)-1,2,3,4-tetrahydroisoquinolin-8-yl) (methyl)amino)pyrrolidin-1-yl)-4-methoxybutan-1-one], the pIC50 [1] was 5.00 to 6.00 and the pIC50 [2, 3] was less than 5.00.
Work on `O=C(c1c(O)cc(O)cc1OCc1ccccc1)N1CCc2ccc(CNC3COC3)cc2C1` [Example 84, (2-(Benzyloxy)-4,6-dihydroxyphenyl)(7-((oxetan-3-ylamino)methyl)-3,4-dihydroisoquinolin-2(1H)-yl)methanone] yielded a pIC50 [1] of 5.00 to 6.00 and a pIC50 [2, 3] of 5.00 to 6.00.
`CC(Nc1cccc2c1CN(C(=O)c1c(O)cc(O)cc1OCc1ccccc1)C2)C1COC1` (centres unmarked) [Example 45, (2-(Benzyloxy)-4,6-dihydroxyphenyl)(4-((1-(oxetan-3-yl)ethyl)amino)isoindolin-2-yl)methanone] gave a pIC50 [1] of 5.00 to 6.00 and a pIC50 [2, 3] of 5.00 to 6.00.
With `COc1cc2c(c(NC3CCOC3)c1)CN(C(=O)c1c(O)cc(O)cc1OCc1ccccc1)CC2` (single isomer, unassigned) [Example 73, (2-(Benzyloxy)-4,6-dihydroxyphenyl)(6-methoxy-8-((tetrahydrofuran-3-yl)amino)-3,4-dihydroisoquinolin-2(1H)-yl)methanone] the pIC50 [1] was 5.00 to 6.00 and the pIC50 [2, 3] was less than 5.00.
`O=C(c1c(O)cc(O)cc1OCc1ccccc1)N1Cc2cccc(OCc3cncnc3)c2C1` [Example 89, (2-(Benzyloxy)-4,6-dihydroxyphenyl)(4-(pyrimidin-5-ylmethoxy)isoindolin-2-yl)methanone] was tested, and the pIC50 [1] was greater than 6.00 and the pIC50 [2, 3] was greater than 6.00.
`COc1cc2c(c(NC3CCOC3)c1)CN(C(=O)c1c(O)cc(O)cc1OCc1ccccc1)CC2` (single isomer, unassigned) [Example 72, (2-(Benzyloxy)-4,6-dihydroxyphenyl)(6-methoxy-8-((tetrahydrofuran-3-yl)amino)-3,4-dihydroisoquinolin-2(1H)-yl)methanone] showed a pIC50 [1] greater than 6.00 and a pIC50 [2, 3] of 5.00 to 6.00.
`COCCOc1cc2c(c(N[C@H]3CCOC3)c1)CN(C(=O)c1c(O)cc(O)cc1OCc1ccccc1)CC2` [Example 64, (S)-(2-(Benzyloxy)-4,6-dihydroxyphenyl)(6-(2-methoxyethoxy)-8-((tetrahydrofuran-3-yl)amino)-3,4-dihydroisoquinolin-2(1H)-yl)methanone] was tested, and the pIC50 [1] was greater than 6.00 and the pIC50 [2, 3] was 5.00 to 6.00.
Molecule `O=C(c1c(O)cc(O)cc1OCc1ccccc1)N1CCc2cccc(Nc3cccnc3)c2C1` [Example 118, (2-(Benzyloxy)-4,6-dihydroxyphenyl)(8-(pyridin-3-ylamino)-3,4-dihydroisoquinolin-2(1H)-yl)methanone] has a pIC50 [1] of 5.00 to 6.00 and a pIC50 [2, 3] of 5.00 to 6.00.
With `CN(C)CCOc1cc2c(c(N[C@H]3CCOC3)c1)CN(C(=O)c1c(O)cc(O)cc1OCc1ccccc1)CC2` [Example 132, (S)-(2-(Benzyloxy)-4,6-dihydroxyphenyl)(6-(2-(dimethylamino)ethoxy)-8-((tetrahydrofuran-3-yl)amino)-3,4-dihydroisoquinolin-2(1H)-yl)methanone] the pIC50 [1] was greater than 6.00 and the pIC50 [2, 3] was greater than 6.00.
Work on `O=C(c1c(O)cc(O)cc1OCc1ccccc1)N1CCc2cccc(Nc3ccc(=O)[nH]c3)c2C1` [Example 134, 5-((2-(2-(Benzyloxy)-4,6-dihydroxybenzoyl)-1,2,3,4-tetrahydroisoquinolin-8-yl)amino)pyridin-2(1H)-one] yielded a pIC50 [1] greater than 6.00 and a pIC50 [2, 3] of less than 5.00.
In the case of `COCCCC(=O)N1CC[C@H](Nc2cccc3c2CN(C(=O)c2c(O)cc(O)cc2OCc2ccccc2)CC3)C1` [Example 151, (S)-1-(3-((2-(2-(Benzyloxy)-4,6-dihydroxybenzoyl)-1,2,3,4-tetrahydroisoquinolin-8-yl)amino)pyrrolidin-1-yl)-4-methoxybutan-1-one], the pIC50 [1] was greater than 6.00 and the pIC50 [2, 3] was less than 5.00.
For `CNCc1cccc2c1CN(C(=O)c1c(O)cc(O)cc1OCc1ccccc1)C2` [Example 79, (2-(Benzyloxy)-4,6-dihydroxyphenyl) (4-((methylamino)methyl)isoindolin-2-yl) methanone], the pIC50 [1] was 5.00 to 6.00 and the pIC50 [2, 3] was 5.00 to 6.00.
Molecule `O=C(c1c(O)cc(O)cc1OCc1ccccc1)N1Cc2cccc(NC3COCC(F)(F)C3)c2C1` (centres unmarked) [Example 32, (2-(Benzyloxy)-4,6-dihydroxyphenyl)(4-((5,5-difluorotetrahydro-2H-pyran-3-yl)amino)isoindolin-2-yl)methanone] has a pIC50 [1] of 5.00 to 6.00 and a pIC50 [2, 3] of 5.00 to 6.00.
